Assay results taken from patent US10654834B2 (Venenum Biodesign, LLC, priority 2016, dated 2020).
pEC50: −log10 of the molar value.

Assays:
Assay type in all cases: cell-based
[1] = biological target: T1, human TGR5 receptor (Homo sapiens, UniProt Q8TDU6); assay: Human TGR5 cAMP production assay (hTGR5-CHO cells, DiscoveRx cAMP XS+ kit); settings: luminescent cAMP assay, read-out: Human TGR5 Lum. cAMP Activity (EC50)
T1 construct: host or cells: CHO-K1 (hTGR5-CHO)
T1 sequence (Q8TDU6 1-330): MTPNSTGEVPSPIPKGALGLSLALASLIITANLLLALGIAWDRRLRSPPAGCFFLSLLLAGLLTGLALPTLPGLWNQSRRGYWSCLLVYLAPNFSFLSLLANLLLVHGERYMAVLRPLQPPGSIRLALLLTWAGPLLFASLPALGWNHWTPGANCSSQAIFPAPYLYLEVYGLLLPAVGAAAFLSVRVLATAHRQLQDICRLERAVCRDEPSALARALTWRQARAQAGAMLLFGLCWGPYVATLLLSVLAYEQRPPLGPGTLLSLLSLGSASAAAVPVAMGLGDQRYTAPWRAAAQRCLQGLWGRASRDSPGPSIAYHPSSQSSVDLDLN
Summary of the method: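 CHO-K1 cells stably expressing hTGR5, in PBS with IBMX and cAMP antibody, treated with half-log compound dilutions for 1 h at room temperature. cAMP measured by enzyme-fragment complementation luminescence after overnight detection; EC50 values reported.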

[2] = biological target: T2, mouse TGR5 receptor (Mus musculus, UniProt Q80SS6); assay: Mouse TGR5 HTRF cAMP production assay (HEK293-EBNA cells, Cisbio cAMP HiRange kit); settings: HEK293-EBNA cells overexpressing mouse TGR5, HTRF cAMP assay
T2 construct: host or cells: HEK293-EBNA (293 c18, ATCC CRL10852)
T2 sequence (Q80SS6 1-329): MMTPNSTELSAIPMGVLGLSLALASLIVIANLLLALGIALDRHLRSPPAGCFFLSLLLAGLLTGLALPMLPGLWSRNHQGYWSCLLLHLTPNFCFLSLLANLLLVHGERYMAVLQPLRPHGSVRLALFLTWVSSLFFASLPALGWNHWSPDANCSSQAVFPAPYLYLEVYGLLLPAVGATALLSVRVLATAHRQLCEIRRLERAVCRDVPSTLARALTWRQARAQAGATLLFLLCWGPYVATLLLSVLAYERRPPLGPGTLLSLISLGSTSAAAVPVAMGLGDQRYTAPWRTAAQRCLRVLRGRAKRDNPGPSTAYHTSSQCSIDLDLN
Summary of the method: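 HEK293-EBNA cells stably expressing mouse TGR5 (episomal vector) were suspended in serum-free DMEM with 500 μM IBMX and exposed to 12-point half-log compound dilutions for 1 h at room temperature. cAMP was detected by HTRF (d2-cAMP/anti-cAMP cryptate, 1 h, room temperature), giving EC50 from duplicates.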

[3] = system: Mouse STC-1 cells; assay: STC-1 GLP-1 assay (GLP-1 secretion); settings: Mouse STC-1 cells, GLP-1 secretion, 2 h; read-out: Mouse STC-1 HTRF GLP-1 Activity (EC50)
Method: Compounds of the present invention were evaluated for their ability to induce GLP-1 production in mouse intestinal neuroendocrine tumor cells.
Mouse STC-1 cells were cultured and maintained in high glucose DMEM (Sigma #5796) supplemented with 15% horse serum, 5% Fetal Bovine Serum (FBS), 1%° penicillin/streptomycin, and 2 mM L-alanine L-glutamine (GlutaMax). Two days prior to analysis of GLP-1 secretion cells were harvested using Accutase (Sigma), spun down then resuspended in high glucose DMEM media containing 2 mM L-alanine L-glutamine (GlutaMax), 10% charcoal-dextran stripped FBS, and 50 μg/mL Gentamicin, at a density of 100,000° cells/mL. 100 μL of cell suspension was added to each well of a 96-well Poly-D-Lysine coated culture plate (Sigma; cat #2382493) and was incubated at 37° C. with 5% CO2.
Compounds were initially diluted in 100% DMSO (12-point serial dilution by half logs) in a 96-well plate and then were further diluted 1:500 in Hanks' Balanced Salt Solution (HBSS) containing protease inhibitor cocktail, DPP-IV inhibitor, and 0.1% fatty acid free bovine serum albumin. On the day of the experiment cells were washed once with HBSS. After wash, 100 μL of test compound was added to each well. The plate was incubated at 37° C. with 5% CO2 for 2° h. Supernatants were collected and GLP-1 secretion was measured using the Cisbio™ Active GLP-1 HTRF Assay Kit (CisBio). Briefly, Anti-GLP-1-d2 conjugate and Anti-GLP-1 Terbium Cryptate conjugate stock solutions were prepared as per kit instructions. The two solutions were pre-mixed and 10 μL were transferred to a 384-well low volume plate (Greiner; cat #784075). 10 μL of collected supernatants were added to wells already containing the conjugate solution. The plate was covered and incubated at room temperature overnight. The plate was read on an Envision™ plate reader (PerkinElmer).
In Table 53, EC50 values were obtained from the STC-1 GLP-1 production assay for compounds of the present invention are summarized.

`CN(C)CCC1CCN(c2cc(N3CC[C@H]3C(=O)NCCc3ccc(C#N)cc3)nc(C(F)(F)F)n2)CC1` [Compound 228, (S)-N-(4-cyanophenethyl)-1-(6-(4-(2-(dimethylamino)ethyl)piperidin-1-yl)-2-(trifluoromethyl)pyrimidin-4-yl)azetidine-2-carboxamide] was tested, and the pEC50 [1] was > 7.00, the pEC50 [2] was > 7.00 and the pEC50 [3] was 6.00 to 7.00.
For `COc1cc(C(F)(F)F)ccc1CCNC(=O)[C@@H]1CCN1c1cc(N2CCC(CCO)CC2)nc(C(F)(F)F)n1` [Compound 238, (5)-1-(6-(4-(2-hydroxyethyl)piperidin-1-yl)-2-(trifluoromethyl)pyrimidin-4-yl)-N-(2-methoxy-4-(trifluoromethyl)phenethyl)azetidine-2-carboxamide], the pEC50 [1] was > 7.00, the pEC50 [2] was > 7.00 and the pEC50 [3] was 6.00 to 7.00.
In the case of `COCCN1CCN(c2cc(N3CCC[C@@H](C(=O)NCCc4ccc(C(F)(F)F)cc4)C3)nc(C(F)(F)F)n2)CC1` [Compound 328, (R)-1-(6-(4-(2-methoxyethyl)piperazin-1-yl)-2-(trifluoromethyl)pyrimidin-4-yl)-N-(4-(trifluoromethyl)phenethyl)piperidine-3-carboxamide], the pEC50 [1] was > 7.00, the pEC50 [2] was > 7.00 and the pEC50 [3] was 6.00 to 7.00.
`COc1cc(C(F)(F)F)ccc1CCNC(=O)[C@@H]1CCN1c1cc(N2CCC(CCCC(=O)O)CC2)nc(C(F)(F)F)n1` [Compound 240, (S)-4-(1-(6-(2-((2-methoxy-4-(trifluoromethyl)phenethyl)carbamoyl)azetidin-1-yl)-2-(trifluoromethyl)pyrimidin-4-yl)piperidin-4-yl)butanoic acid] was tested, and the pEC50 [1] was > 7.00, the pEC50 [2] was > 7.00 and the pEC50 [3] was > 7.00.
In the case of `N#Cc1ccc(CCNC(=O)[C@@H]2CCN2c2cc(N3CCC(CCC(=O)O)CC3)nc(C(F)(F)F)n2)cc1` [Compound 227, (S)-3-(1-(6-(2-((4-cyanophenethyl)carbamoyl)azetidin-1-yl)-2-(trifluoromethyl)pyrimidin-4-yl)piperidin-4-yl)propanoic acid], the pEC50 [1] was > 7.00, the pEC50 [2] was > 7.00 and the pEC50 [3] was 6.00 to 7.00.
`CCOC(=O)CCNC(=O)NCCC1CCN(c2cc(N3CCC[C@@H](C(=O)NCCc4ccc(C#N)cc4)C3)nc(C(F)(F)F)n2)CC1` [Compound 346, (R)-ethyl 3-(3-(2-(1-(6-(3-((4-cyanophenethyl)carbamoyl)piperidin-1-yl)-2-(trifluoromethyl)pyrimidin-4-yl)piperidin-4-yl)ethyl)ureido)propanoate] was tested, and the pEC50 [1] was > 7.00, the pEC50 [2] was > 7.00 and the pEC50 [3] was > 7.00.
With `N#CCCN1CCN(c2cc(N3CCC[C@H]3C(=O)NCCc3ccc(C(F)(F)F)cc3)nc(C(F)(F)F)n2)CC1` [Compound 10] the pEC50 [1] was > 7.00, the pEC50 [2] was > 7.00 and the pEC50 [3] was 6.00 to 7.00.
In the case of `N#Cc1ccc(CCNC(=O)[C@@H]2CCCN2c2cc(N3CCC(CCNS(=O)(=O)CCNC(=O)NCCC(=O)O)CC3)nc(C(F)(F)F)n2)cc1` [Compound 371, (S)-3-(3-(3-((2-(1-(6-(2-((4-cyanophenethyl)carbamoyl)pyrrolidin-1-yl)-2-(trifluoromethyl)pyrimidin-4-yl)piperidin-4-yl)ethyl)amino)-2-sulfonyl)ethylureido)propanoic acid], the pEC50 [1] was > 7.00, the pEC50 [2] was > 7.00 and the pEC50 [3] was 6.00 to 7.00.
`N#CCCC1CCN(c2cc(N3CC[C@H]3C(=O)NCCc3ccc(C#N)cc3)nc(C(F)(F)F)n2)CC1` [Compound 230, (S)-1-(6-(4-(2-cyanoethyl)piperidin-1-yl)-2-(trifluoromethyl)pyrimidin-4-yl)-N-(4-cyanophenethyl)azetidine-2-carboxamide] was tested, and the pEC50 [1] was > 7.00, the pEC50 [2] was > 7.00 and the pEC50 [3] was 6.00 to 7.00.
For `N#Cc1ccc(CCNC(=O)[C@@H]2CCCN2c2cc(N3CCC(CO)CC3)cc(C(F)(F)F)n2)cc1` [Compound 38], the pEC50 [1] was > 7.00, the pEC50 [2] was > 7.00 and the pEC50 [3] was 6.00 to 7.00.
In the case of `N#Cc1ccc(CCNC(=O)[C@@H]2CCN2c2cc(N3CCC(CCC(=O)NCCS(=O)(=O)O)CC3)nc(C(F)(F)F)n2)cc1` [Compound 262], the pEC50 [1] was > 7.00, the pEC50 [2] was > 7.00 and the pEC50 [3] was 6.00 to 7.00.
In the case of `CN(C)CCN1CCN(c2cc(N3CCC[C@@H](C(=O)NCCc4ccc(C#N)cc4)C3)nc(C(F)(F)F)n2)CC1` [Compound 333, (R)-N-(4-cyanophenethyl)-1-(6-(4-(2-(dimethylamino)ethyl)piperazin-1-yl)-2-(trifluoromethyl)pyrimidin-4-yl)piperidine-3-carboxamide], the pEC50 [1] was > 7.00, the pEC50 [2] was > 7.00 and the pEC50 [3] was 6.00 to 7.00.
`N[C@@H](CO)C(=O)N1CCN(c2cc(N3CCC[C@@H](C(=O)NCCc4ccc(C(F)(F)F)cc4)C3)nc(C(F)(F)F)n2)CC1` [Compound 342, (R)-1-(6-(4-((S)-2-amino-3-hydroxypropanoyl)piperazin-1-yl)-2-(trifluoromethyl)pyrimidin-4-yl)-N-(4-(trifluoromethyl)phenethyl)piperidine-3-carboxamide] was tested, and the pEC50 [1] was 6.00 to 7.00, the pEC50 [2] was > 7.00 and the pEC50 [3] was 6.00 to 7.00.
With `N#CCCN1CCN(c2cc(N3CC[C@H]3C(=O)NCCc3ccc(C#N)cc3)nc(C(F)(F)F)n2)CC1` [Compound 229, (S)-1-(6-(4-(2-cyanoethyl)piperazin-1-yl)-2-(trifluoromethyl)pyrimidin-4-yl)-N-(4-cyanophenethyl)azetidine-2-carboxamide] the pEC50 [1] was > 7.00, the pEC50 [2] was > 7.00 and the pEC50 [3] was 6.00 to 7.00.
